Measurements as given in US6525001B1, “Substituted pyrimidine and pyridine herbicides” (Mid-American Commercialization Corporation, priority 1997, dated 2003).

Assays:
Type in all cases: in vivo
[1] = tested on: cocklebur (Xanthium strumarium); assay: Test C; design: key: 0 was no effect; 100 was complete control
[2] = tested on: common ragweed (Ambrosia elatior); assay: Test C
[3] = tested on: fall panicum (Panicum dichotomiflorum); assay: Test C; design: key: 0 was no effect; 100 was complete control
[4] = tested on: field bindweed (Convolvulus arvensis); assay: Test C; design: key: 0 was no effect; 100 was complete control
[5] = tested on: hairy beggarticks (Bidens pilosa); assay: Test C
[6] = tested on: johnsongrass (Sorghum halepense); assay: Test C
[7] = tested on: lambsquarters (Chenopodium album); assay: Test C; design: key: 0 was no effect; 100 was complete control
[8] = tested on: large crabgrass (Digitaria sanguinalis); assay: Test C; design: key: 0 was no effect; 100 was complete control
[9] = tested on: velvetleaf (Abutilon theophrasti); assay: Test C; design: key: 0 was no effect; 100 was complete control
[10] = tested on: wild poinsettia (Euphorbia heterophylla); assay: Test C; design: key: 0 was no effect; 100 was complete control
[11] = tested on: purple nutsedge (Cyperus rotundus); assay: Test E pre-/postemergence/post directed; design: key: 0 is no injury; 100 is complete control
Procedure, shortened: (§1)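 Three application modes in greenhouse pots: preemergence soil spray, postemergence foliar spray at two to four leaves, and post-directed spray to soil and plant base. Ratings of 0–100 injury, assigned visually against untreated controls 13 to 21 days later.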

[12] = tested on: sandbur (Cenchrus echinatus); assay: Test E pre-/postemergence/post directed; design: key: 0 is no injury; 100 is complete control
Procedure, shortened: as §1

[13] = tested on: alexandergrass (Brachiaria plantaginea); assay: Test E pre-/postemergence/post directed
Procedure, shortened: as §1

[14] = tested on: common groundsel (Senecio vulgaris); assay: Test E pre-/postemergence/post directed
Procedure, shortened: as §1

[15] = tested on: surinam grass (Brachiaria decumbens); assay: Test E pre-/postemergence/post directed
Procedure, shortened: as §1

SMILES: Cc1cnc(-c2ccc(C(F)(F)F)cc2)nc1Cn1ccc(C(F)(F)F)n1 [compound 9]
- Plant response rating, Cocklebur ([1]; POSTEMERGENCE, Rate 35 g/ha): 60
- Plant response rating, Cocklebur ([1]; POSTEMERGENCE, Rate 70 g/ha): 80
- Plant response rating, Cocklebur ([1]; POSTEMERGENCE, Rate 140 g/ha): 80
- Plant response rating, Cocklebur ([1]; PREEMERGENCE, Rate 35 g/ha): 0
- Plant response rating, Cocklebur ([1]; PREEMERGENCE, Rate 70 g/ha): 0
- Plant response rating, Cocklebur ([1]; PREEMERGENCE, Rate 140 g/ha): 0
- Plant response rating, Common ragweed ([2]; POSTEMERGENCE, Rate 70 g/ha): 30
- Plant response rating, Common ragweed ([2]; POSTEMERGENCE, Rate 140 g/ha): 10
- Plant response rating, Common ragweed ([2]; PREEMERGENCE, Rate 35 g/ha): 80
- Plant response rating, Common ragweed ([2]; PREEMERGENCE, Rate 70 g/ha): 95
- Plant response rating, Common ragweed ([2]; PREEMERGENCE, Rate 140 g/ha): 75
- Plant response rating, Fall panicum ([3]; POSTEMERGENCE, Rate 35 g/ha): 5
- Plant response rating, Fall panicum ([3]; POSTEMERGENCE, Rate 70 g/ha): 20
- Plant response rating, Fall panicum ([3]; POSTEMERGENCE, Rate 140 g/ha): 30
- Plant response rating, Fall panicum ([3]; PREEMERGENCE, Rate 35 g/ha): 85
- Plant response rating, Fall panicum ([3]; PREEMERGENCE, Rate 70 g/ha): 90
- Plant response rating, Fall panicum ([3]; PREEMERGENCE, Rate 140 g/ha): 100
- Plant response rating, Field bindweed ([4]; POSTEMERGENCE, Rate 35 g/ha): 60
- Plant response rating, Field bindweed ([4]; POSTEMERGENCE, Rate 70 g/ha): 70
- Plant response rating, Field bindweed ([4]; POSTEMERGENCE, Rate 140 g/ha): 80
- Plant response rating, Field bindweed ([4]; PREEMERGENCE, Rate 35 g/ha): 50
- Plant response rating, Field bindweed ([4]; PREEMERGENCE, Rate 70 g/ha): 100
- Plant response rating, Field bindweed ([4]; PREEMERGENCE, Rate 140 g/ha): 90
- Plant response rating, H. beggarticks ([5]; POSTEMERGENCE, Rate 35 g/ha): 65
- Plant response rating, H. beggarticks ([5]; POSTEMERGENCE, Rate 70 g/ha): 70
- Plant response rating, H. beggarticks ([5]; POSTEMERGENCE, Rate 140 g/ha): 80
- Plant response rating, H. beggarticks ([5]; PREEMERGENCE, Rate 35 g/ha): 85
- Plant response rating, H. beggarticks ([5]; PREEMERGENCE, Rate 70 g/ha): 85
- Plant response rating, H. beggarticks ([5]; PREEMERGENCE, Rate 140 g/ha): 85
- Plant response rating, Johnsongrass ([6]; POSTEMERGENCE, Rate 35 g/ha): 10
- Plant response rating, Johnsongrass ([6]; POSTEMERGENCE, Rate 140 g/ha): 50
- Plant response rating, Johnsongrass ([6]; PREEMERGENCE, Rate 35 g/ha): 65
- Plant response rating, Johnsongrass ([6]; PREEMERGENCE, Rate 70 g/ha): 85
- Plant response rating, Johnsongrass ([6]; PREEMERGENCE, Rate 140 g/ha): 95
- Plant response rating, Lambsquarters ([7]; POSTEMERGENCE, Rate 35 g/ha): 75
- Plant response rating, Lambsquarters ([7]; POSTEMERGENCE, Rate 70 g/ha): 80
- Plant response rating, Lambsquarters ([7]; POSTEMERGENCE, Rate 140 g/ha): 100
- Plant response rating, Lambsquarters ([7]; PREEMERGENCE, Rate 35 g/ha): 95
- Plant response rating, Lambsquarters ([7]; PREEMERGENCE, Rate 70 g/ha): 100
- Plant response rating, Lambsquarters ([7]; PREEMERGENCE, Rate 140 g/ha): 100
- Plant response rating, Large crabgrass ([8]; POSTEMERGENCE, Rate 35 g/ha): 20
- Plant response rating, Large crabgrass ([8]; POSTEMERGENCE, Rate 70 g/ha): 40
- Plant response rating, Large crabgrass ([8]; POSTEMERGENCE, Rate 140 g/ha): 50
- Plant response rating, Large crabgrass ([8]; PREEMERGENCE, Rate 35 g/ha): 95
- Plant response rating, Large crabgrass ([8]; PREEMERGENCE, Rate 70 g/ha): 100
- Plant response rating, Large crabgrass ([8]; PREEMERGENCE, Rate 140 g/ha): 100
- Plant response rating, Velvetleaf ([9]; POSTEMERGENCE, Rate 35 g/ha): 10
- Plant response rating, Velvetleaf ([9]; POSTEMERGENCE, Rate 70 g/ha): 70
- Plant response rating, Velvetleaf ([9]; POSTEMERGENCE, Rate 140 g/ha): 90
- Plant response rating, Velvetleaf ([9]; PREEMERGENCE, Rate 35 g/ha): 75
- Plant response rating, Velvetleaf ([9]; PREEMERGENCE, Rate 70 g/ha): 95
- Plant response rating, Velvetleaf ([9]; PREEMERGENCE, Rate 140 g/ha): 100
- Plant response rating, Wild poinsettia ([10]; POSTEMERGENCE, Rate 35 g/ha): 90
- Plant response rating, Wild poinsettia ([10]; POSTEMERGENCE, Rate 70 g/ha): 90
- Plant response rating, Wild poinsettia ([10]; POSTEMERGENCE, Rate 140 g/ha): 100
- Plant response rating, Wild poinsettia ([10]; PREEMERGENCE, Rate 35 g/ha): 10
- Plant response rating, Wild poinsettia ([10]; PREEMERGENCE, Rate 70 g/ha): 50
- Plant response rating, Wild poinsettia ([10]; PREEMERGENCE, Rate 140 g/ha): 50
- Plant response rating, Purple nutsedge ([11]; POSTEMERGENCE, Rate 125 g/ha): 0
- Plant response rating, Purple nutsedge ([11]; POSTEMERGENCE, Rate 250 g/ha): 0
- Plant response rating, Purple nutsedge ([11]; PREEMERGENCE, Rate 32 g/ha): 0
- Plant response rating, Purple nutsedge ([11]; PREEMERGENCE, Rate 64 g/ha): 0
- Plant response rating, Purple nutsedge ([11]; PREEMERGENCE, Rate 125 g/ha): 0
- Plant response rating, Purple nutsedge ([11]; PREEMERGENCE, Rate 250 g/ha): 0
- Plant response rating, Sandbur ([12]; POSTEMERGENCE, Rate 125 g/ha): 0
- Plant response rating, Sandbur ([12]; POSTEMERGENCE, Rate 250 g/ha): 0
- Plant response rating, Sandbur ([12]; PREEMERGENCE, Rate 32 g/ha): 0
- Plant response rating, Sandbur ([12]; PREEMERGENCE, Rate 64 g/ha): 0
- Plant response rating, Alexandergrass ([13]; POSTEMERGENCE, Rate 125 g/ha): 10
- Plant response rating, Alexandergrass ([13]; POSTEMERGENCE, Rate 250 g/ha): 10
- Plant response rating, Alexandergrass ([13]; PREEMERGENCE, Rate 32 g/ha): 30
- Plant response rating, Alexandergrass ([13]; PREEMERGENCE, Rate 64 g/ha): 65
- Plant response rating, Alexandergrass ([13]; PREEMERGENCE, Rate 125 g/ha): 65
- Plant response rating, Com. groundsel ([14]; POSTEMERGENCE, Rate 125 g/ha): 25
- Plant response rating, Com. groundsel ([14]; POSTEMERGENCE, Rate 250 g/ha): 30
- Plant response rating, Com. groundsel ([14]; PREEMERGENCE, Rate 32 g/ha): 98
- Plant response rating, Surinam grass ([15]; POSTEMERGENCE, Rate 125 g/ha): 10
- Plant response rating, Surinam grass ([15]; POSTEMERGENCE, Rate 250 g/ha): 10
- Plant response rating, Surinam grass ([15]; PREEMERGENCE, Rate 64 g/ha): 10
- Plant response rating, Surinam grass ([15]; PREEMERGENCE, Rate 125 g/ha): 20
